# Read-outs that look alike come from different tables or passages of the source.
# Assay: Pharmacokinetics in male Swiss Albino mouse, intravenous and oral (LC-MS/MS of plasma)
# Format: in vivo
# Method: The pharmacokinetics of 1H-indole-3-carbaldehyde quinolin-8-ylhydrazone (Compound C3) was evaluated following intravenous (3 mg/kg) and oral (15 mg/kg) solution administration of 1H-indole-3-carbaldehyde quinolin-8-ylhydrazone in male Swiss Albino mouse. The effect of the Test Item, 1H-indole-3-carbaldehyde quinolin-8-ylhydrazone on complete blood count (CBC) was also evaluated. Pharmacokinetic phase consisted of two groups, Group 1 and Group 2. Animals in Group 1 were given intravenous bolus dose in a vehicle containing 5% N,N-dimethylacetamide, 5% CREMOPHOR™ EL and 90% Dextrose solution (5% w/v) and those in Group 2 were given oral solution dose in a vehicle, the composition of which was same as that of intravenous formulation. In addition, the effect of Test Item on complete blood count was evaluated following intravenous and oral dose administration along with its vehicle controls. A total of four groups were used each with 6 mice.
# From the pharmacokinetic group, predose samples were collected from 3 animals in each group. Following dose administration terminal blood samples were collected at each of the following time points (in triplicate): 0.083 (only for intravenous), 0.25, 0.5, 1, 2, 4, 8, 12 and 24 hours. At each time point, approximately 500 μL of whole blood was withdrawn from the retro orbital sinus and collected in labeled tubes containing dipotassium EDTA as anticoagulant (20 μL of 200 mM K2 EDTA solution per mL of blood). Plasma was separated by centrifuging the whole blood at about 2500 g for 10 minutes at 4° C. within 1 h of sample collection. Separated plasma was stored below minus 50° C. until bioanalysis. A sensitive LC-MS/MS method was used for the quantitation of 1H-indole-3-carbaldehyde quinolin-8-ylhydrazone. The lower limit of quantitation was 1.04 ng/mL. For CBC evaluation, approximately 500 μL of blood was collected in labeled tubes containing dipotassium EDTA as anticoagulant (10 […]/mL of blood) after 48 h of dose administration from all animals.
# A total of 57 mice were divided into an intravenous dose group of 30 mice (Group 1) and oral dose group of 27 mice (Group 2). Animals in Group 1 received intravenous bolus dose via tail vein at 3 mg/kg and animals in Group 2 received oral solution dose via gavage at 15 mg/kg. Three animals were administered the dose for each time point (intravenous: 10 time points; Oral: 9 time points). Terminal blood samples were collected from each mouse under light ether anesthesia and plasma was separated.
# Animals in Group 1 were administered an intravenous bolus dose via the tail vein (dosing volume: 6 mL/kg). Animals in Group 2 received oral dose by gavage with an oral dosing needle (dosing volume: 10 mL/kg). Animals in the CBC evaluation group were treated same as above except the animals in control group received vehicle instead of formulation.
# Pharmacokinetic group: Predose samples were collected from 3 animals in each group. Following dose administration terminal blood samples were collected at each of the following time points (in triplicate): 0.083 (only for intravenous), 0.25, 0.5, 1, 2, 4, 8, 12 and 24 hours. For each time point, approximately 500 μL of whole blood was withdrawn from the retro orbital sinus and collected in labeled tubes containing dipotassium EDTA as anticoagulant (20 μL of 200 mM K2 EDTA solution per mL of blood). Plasma was separated by centrifuging the whole blood at about 2500 g for 10 minutes at 4° C. within 1 h of sample collection. Separated plasma was stored below minus 50° C. until bioanalysis.
# An LC-MS/MS method was developed and employed for the quantitation of 1H-indole-3-carbaldehyde quinolin-8-ylhydrazone in the mouse plasma samples. The samples were prepared for analysis following liquid-liquid extraction using amodiaquin as internal standard. The lower limit of quantitation was 1.04 ng/mL.
# Pharmacokinetic parameters were calculated using non-compartmental analysis tool of WINNONLIN™ Enterprise software (Version 5.1.1). […]
# [1] = male, Swiss Albino, mouse, plasma, iv, 3 mg/kg, mouse, intravenous bolus 3 mg/kg, N = 3, read-out: Mean plasma concentration
# [2] = male, Swiss Albino, mouse, plasma, iv, 3 mg/kg, mouse, intravenous bolus 3 mg/kg, individual mice, LLOQ 1.04 ng/mL, read-out: Individual plasma concentration
# [3] = male, Swiss Albino, mouse, plasma, oral, 15 mg/kg, mouse, oral solution 15 mg/kg, N = 3, read-out: Mean plasma concentration
# [4] = male, Swiss Albino, plasma, mouse, IV 3 mg/kg
# [5] = male, Swiss Albino, plasma, mouse, oral solution 15 mg/kg
smiles,measurement,setting,value
"C(=NNc1cccc2cccnc12)c1c[nH]c2ccccc12 [Compound C3, 1H-indole-3-carbaldehyde quinolin-8-ylhydrazone]",concentration at 0.5 h,"male, Swiss Albino, mouse, plasma, iv, 3 mg/kg, intravenous bolus 3 mg/kg, N = 3",292 ng/mL
same,concentration at 0.083 h,"male, Swiss Albino, mouse, plasma, iv, 3 mg/kg, mouse plasma, IV 3 mg/kg, 0.083 h sample, read-out: Initial conc. (repeat analysis)",47.3 ng/mL
same,concentration at 0.083 h,"male, Swiss Albino, mouse, plasma, iv, 3 mg/kg, mouse plasma, IV 3 mg/kg, 0.083 h sample, read-out: Repeated conc. (repeat analysis)",75.6 ng/mL
same,concentration at 0.25 h,"male, Swiss Albino, mouse, plasma, iv, 3 mg/kg, mouse plasma, IV 3 mg/kg, 0.25 h samples, read-out: Initial conc. (repeat analysis)",130 ng/mL
same,concentration at 0.25 h,"male, Swiss Albino, mouse, plasma, iv, 3 mg/kg, mouse plasma, IV 3 mg/kg, 0.25 h samples, read-out: Repeated conc. (repeat analysis)",200 ng/mL
same,half-life,"male, Swiss Albino, mouse, plasma, iv, 3 mg/kg, mouse, IV 3 mg/kg, read-out: T1/2 (converted)",1.67 h
same,half-life,"male, Swiss Albino, mouse, plasma, iv, 3 mg/kg, mouse, following intravenous administration 3 mg/kg, read-out: Half-life (converted)",~1.7 h
same,concentration at 0.083 h,"male, Swiss Albino, mouse, plasma, iv, 3 mg/kg, mouse, intravenous bolus 3 mg/kg, 0.083 h, N = 2, read-out: Mean plasma concentration",1690 ng/mL
same,concentration at 0.25 h,"male, Swiss Albino, mouse, plasma, iv, 3 mg/kg, mouse, intravenous bolus 3 mg/kg, 0.25 h, N = 3, read-out: Mean plasma concentration",244 ng/mL
same,concentration at 0.25 h,"male, Swiss Albino, mouse, plasma, iv, 3 mg/kg, mouse, intravenous bolus 3 mg/kg, 0.25 h, individual mice, LLOQ 1.04 ng/mL, read-out: Individual plasma concentration",200 ng/mL
same,concentration at 1 h,[1],147 ng/mL
same,concentration at 1 h,[2],116 ng/mL
same,concentration at 2 h,[1],65.2 ng/mL
same,concentration at 2 h,[2],71.9 ng/mL
same,concentration at 4 h,[1],35.9 ng/mL
same,concentration at 4 h,[2],42.4 ng/mL
same,concentration at 8 h,[1],8.95 ng/mL
same,concentration at 8 h,[2],10.1 ng/mL
same,concentration at 12 h,[1],1.29 ng/mL
same,concentration at 12 h,"male, Swiss Albino, mouse, plasma, iv, 3 mg/kg, mouse, intravenous bolus 3 mg/kg, individual mice, BLQ = below LLOQ 1.04 ng/mL, read-out: Individual plasma concentration",1.68 ng/mL
same,bioavailability,"male, Swiss Albino, mouse, plasma, oral, 15 mg/kg, mouse, oral 15 mg/kg vs IV 3 mg/kg, read-out: F, absolute oral solution bioavailability",~26%
same,concentration at 0.25 h,"male, Swiss Albino, mouse, plasma, oral, 15 mg/kg, mouse, oral solution 15 mg/kg, 0.25 h, N = 3, read-out: Mean plasma concentration",140 ng/mL
same,concentration at 1 h,[3],199 ng/mL
same,concentration at 2 h,[3],96.5 ng/mL
same,concentration at 4 h,[3],146 ng/mL
same,concentration at 8 h,[3],75.3 ng/mL
same,concentration at 8 h,"male, Swiss Albino, mouse, plasma, oral, 15 mg/kg, mouse, oral solution 15 mg/kg, individual mice, LLOQ 1.04 ng/mL, read-out: Individual plasma concentration",76.7 ng/mL
same,concentration at 12 h,[3],8.91 ng/mL
same,concentration at 0.5 h,"male, Swiss Albino, mouse, plasma, oral, 15 mg/kg, oral solution 15 mg/kg, N = 3",148 ng/mL
same,half-life,"male, Swiss Albino, mouse, plasma, po, 15 mg/kg, mouse, oral solution 15 mg/kg, read-out: T1/2 (converted)",1.98 h
same,AUC,[4],913 ng·h/mL
same,AUC(0-t),[4],909 ng·h/mL
same,Cmax,[4],1690 ng/mL
same,clearance,[4],54.8 mL/min/kg
same,Tmax,"male, Swiss Albino, plasma, mouse, IV 3 mg/kg, first sampling point",0.083 h
same,Vd,"male, Swiss Albino, plasma, mouse, IV 3 mg/kg, read-out: Vds. (volume of distribution)",4.28 L/kg
same,AUC,[5],1170 ng·h/mL
same,AUC(0-t),[5],1140 ng·h/mL
same,Cmax,[5],199 ng/mL
same,Tmax,[5],1 h
same,Accepted conc. (repeat analysis),"mouse plasma, IV 3 mg/kg, 0.083 h sample",75.62 c ng/mL

# Source: US8039505B2, “Compounds for modulating T-cells” (University of Utah Research Foundation, priority 2007, dated 2011)
